The target of the experiment is Low molecular weight phosphotyrosine protein phosphatase (Homo sapiens) (UniProt P24666). As to the kind of experiment: LMPTP phosphatase inhibitors, SAR follow-up, biochemical, fluorescence intensity (AID 686962). The note with it: recombinant LMPTP-A, OMFP fluorogenic substrate, 50 min.

Each structure is given as a SMILES string. pIC50: −log10 of the molar value. The source made the active and inactive calls.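 How the source made its calls: active means IC50 at or below 20 µM in the dose response confirmation; inactive means the rest.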 Some results are limits rather than exact numbers.

Chain of Low molecular weight phosphotyrosine protein phosphatase (Homo sapiens) (P24666 whole entry, looked up): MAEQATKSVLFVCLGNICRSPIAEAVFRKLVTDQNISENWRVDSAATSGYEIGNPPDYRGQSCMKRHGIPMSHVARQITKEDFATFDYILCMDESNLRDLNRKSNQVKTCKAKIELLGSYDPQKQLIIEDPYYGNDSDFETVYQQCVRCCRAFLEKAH

As for `CC(C)OCCCNc1nc(-c2ccccc2)nc2ccccc12`, the pIC50 – broadly, −log10 of the IC50, conventionally taken in molar units – was 4.74.

`Clc1cccc(Cl)c1Cn1cnc(=NCc2ccco2)c2[nH]cnc21`: the pIC50 is 4.99.

`Fc1ccccc1-c1nc(NC2CCCC2)c2ccccc2n1`: the negative-log IC50 (pIC50) was 4.97.

`Cc1cccc(-c2nc(NCCCN3CCOCC3)c3ccccc3n2)c1`: the negative-log IC50 (pIC50) is 4.87.

For the molecule `c1ccc(-c2nc(NCc3cccnc3)c3ccccc3n2)cc1`, the pIC50 was 4.72.

For the molecule `c1ccc(-c2cc(NCCN3CCCCC3)c3ccccc3n2)cc1`, the pIC50 was 5.54.

With `c1ccc(-c2cc(N3CCCCC3)c3ccccc3n2)cc1`, the pIC50 was 4.95.

In the case of `Cc1ccc(-c2nc(NCCN3CCOCC3)c3ccccc3n2)cc1`, the pIC50 is 4.73.

Regarding `Cc1ccc(-c2nc(NCc3cccnc3)c3ccccc3n2)cc1`, the pIC50 was 4.89.

Consider `Cc1c(CCC(=O)O)c(=O)oc2c(C)c(OCc3ccccc3Cl)ccc12`, for which the pIC50 was 5.13.

For the molecule `Fc1ccccc1-c1nc(NCCCN2CCOCC2)c2ccccc2n1`, the IC50 (in general, the concentration needed to halve the response being measured) was “inactive”.

Take `Nc1nc(N)c(Cc2ccc(Cl)cc2Cl)c(N)n1`: the pIC50 is 4.94.

For the molecule `CCc1nc(N)nc(N)c1-c1ccc(Cl)cc1`, the pIC50 was 4.83.

On to `O=C(OCCNc1nc(-c2ccccc2)nc2ccccc12)c1ccncc1`, for which the IC50 entry was “inactive”.

As to `COc1ccccc1CNc1ncnc2ccsc12`, the IC50 was > 80 µM (inactive).

As to `c1ccc(-c2nc(NCCCn3ccnc3)c3ccccc3n2)cc1`, the pIC50 was 4.75.

Take `O=C(OCCNc1nc(-c2ccccc2)nc2ccccc12)c1cccnc1`: the IC50 result was “inactive”.

For the origin of these results see PubChem BioAssay AID686962 (Sanford-Burnham Center for Chemical Genomics, 2013).
